In brackets after ≈: the same amount, converted by molar mass. Where two headings read alike, the source gives them in different places. Starred links: 1 amine or outer side, 2 acyl side, 3 side chain; linkers in the order of their positions; H or OH if unused. Non-standard residues stand in square brackets, D forms with d. Residues, ends and D or L forms follow the SMILES beside them. NH(CH2)9CO = O=C(CCCCCCCCCN[*:1])[*:2]; Aoc = NCCCCCCCC(=O)O
Key:
C. albicans = settings: 24 h
[1] = test system: Mycobacterium smegmatis ATCC 700084; format: cell-based; settings: ATCC 700084, 48 h
Fusarium spp. = settings: 48 h
C. auris = settings: 24 h
C. dubliniensis = settings: 24 h
C. glabrata = settings: 24 h
[2] = test system: Shigella sonnei MMX 10772; experiment: Antibacterial broth microdilution MIC, Shigella sonnei; format: cell-based; settings: CAMHB
[3] = test system: Salmonella senftenberg CDC 127; format: cell-based
[4] = test system: Microsporum gypseum ATCC 14683
C. neoformans = settings: 72 h
[5] = test system: Staphylococcus aureus ATCC 29213; format: cell-based
[6] = test system: Trichophyton rubrum ATCC MYA-4438
[7] = test system: Epidermophyton floccosum ATCC 52066
[8] = test system: Pseudomonas aeruginosa ATCC 27853; format: cell-based
C. krusei = settings: 24 h
[9] = test system: Escherichia coli ATCC 25922; format: cell-based
C. gattii = settings: 72 h
[10] = test system: Mycobacterium fortuitum ATCC 110; experiment: Antibacterial broth microdilution MIC, Mycobacterium fortuitum; format: cell-based; settings: 48 hrs
C. parapsilosis = settings: 24 h
in vitro [11] = settings: human
C. tropicalis = settings: 24 h
[12] = test system: Klebsiella pneumoniae ATCC 13883; format: cell-based
[13] = Subacute toxicity in CD-1 mice; format: in vivo; settings: daily IP for 7 days
Description: In the subacute toxicity study, groups of CD-1 male or female mice were administered seven consecutive daily intraperitoneal doses (n=3 per dose) of the peptides (SEQ ID NO: 7, SEQ ID NO: 29, SEQ ID NO: 53) dissolved in normal saline for injection. Each peptide was evaluated at 2 to 3 dose levels ranging from 2.5 to 7.5 mg/kg/day. Mice were weighed at least once daily and observed at least twice daily for any abnormal findings and determination of overall health. At 24 hrs after the last dose, mice were humanely euthanized, with blood collected through cardiac puncture into K2EDTA microtainers to assess hematological parameters. All three peptides were tolerated at the highest dose evaluated (7.5 mg/kg/day) for 7 days.

in vitro [14] = settings: human, human serum, full strength
[15] = mice
Scedosporium spp. = settings: 72 h
[16] = Acute toxicity in CD-1 mice; settings: both sexes, mouse, in vivo
Description: Acute toxicity and subacute toxicity of ACPs were tested in CD-1 mice. In the acute toxicity study, groups of CD-1 male or female mice were administered single intravenous or intraperitoneal escalating doses (n=2-3 per dose) of the peptides dissolved in normal saline for injection or in phosphate buffered saline. The intravenous dose was administered via tail vein with a slow push over 15-20 seconds. Doses were escalated based on tolerability.

Coccidioides species = settings: N = 10 strains; 48-72 hrs; >50% inhibition
[17] = EC50 cytotoxicity in HepG2, intracellular ATP assay

SMILES	MIC C. albicans (C. albicans) [µg/mL]	MIC Mycobacterium smegmatis [1] [µg/mL]	MIC Range Fusarium spp. (Fusarium spp.) [µg/mL]	MIC C. auris (C. auris) [µg/mL]	MIC C. dubliniensis (C. dubliniensis) [µg/mL]	MIC C. glabrata (C. glabrata) [µg/mL]	MIC Shigella sonnei [2] [µg/mL]	MIC Salmonella senftenberg [3] [µg/mL]	MIC Microsporum gypseum [4] [µg/mL]	MIC C. neoformans (C. neoformans) [µg/mL]	MIC Staphylococcus aureus [5] [µg/mL]	MIC Trichophyton rubrum [6] [µg/mL]	MIC Epidermophyton floccosum [7] [µg/mL]	MIC Pseudomonas aeruginosa [8] [µg/mL]	MIC C. krusei (C. krusei) [µg/mL]	MIC Escherichia coli [9] [µg/mL]	MIC C. gattii (C. gattii) [µg/mL]	MIC C. parapsilosis (C. parapsilosis) [µg/mL]	EC50 (in vitro [11]; [17]) [µg/mL]	MIC C. tropicalis (C. tropicalis) [µg/mL]	also measured
N=C(N)NCCC[C@@H](N)C(=O)N[C@@H](CCCNC(=N)N)C(=O)N[C@H](CCCNC(=N)N)C(=O)NCC(=O)N[C@H](CCCNC(=N)N)C(=O)N[C@@H](CCCNC(=N)N)C(=O)N[C@H](CCCNC(=N)N)C(=O)NCC(=O)N[C@H](CCCNC(=N)N)C(=O)N[C@@H](CCCNC(=N)N)C(=O)N[C@H](CCCNC(=N)N)C(=O)N[C@@H](CCCNC(=N)N)C(=O)NCC(=O)N[C@H](CCCNC(=N)N)C(=O)N[C@@H](CCCNC(=N)N)C(=O)N[C@H](CCCNC(=N)N)C(=O)N[C@@H](CCCNC(=N)N)C(=O)N[C@@H](CS)C(=O)O [SEQ ID NO: 2, rRr-G-rRr-G-rRrR-G-rRrR-Cys] (H-[dR]R[dR]G[dR]R[dR]G[dR]R[dR]RG[dR]R[dR]RC-OH)	0.5 (≈ 0.202 µM)	1 (≈ 0.403 µM)	0.12 to 0.25	2 (≈ 0.807 µM)	0.5 (≈ 0.202 µM)	0.5 (≈ 0.202 µM)	16 (≈ 6.45 µM)	32 (≈ 12.9 µM)	>64	0.5 (≈ 0.202 µM)	8 (≈ 3.23 µM)	2 (≈ 0.807 µM)	4 (≈ 1.61 µM)	32 (≈ 12.9 µM)	0.5 (≈ 0.202 µM)	8 (≈ 3.23 µM)	0.5 (≈ 0.202 µM)	0.25 (≈ 0.101 µM)	40 (≈ 16.1 µM)	0.25 (≈ 0.101 µM)	MIC50 against Candida spp. (Candida spp.): 0.5 µg/mL (≈ 0.202 µM); MIC90 against Candida spp. (Candida spp.): 2 µg/mL (≈ 0.807 µM); MIC Mycobacterium fortuitum [10]: 4 µg/mL (≈ 1.61 µM); EC50 (in vitro [11]; EC50 cytotoxicity in HepG2 cells (50% cell viability)): 39.6 µg/mL (≈ 16 µM); MIC Klebsiella pneumoniae [12]: 64 µg/mL (≈ 25.8 µM)
N=C(N)NCCC[C@@H](N)C(=O)N[C@@H](CCCNC(=N)N)C(=O)N[C@H](CCCNC(=N)N)C(=O)NCCCCCCCCCC(=O)N[C@H](CCCNC(=N)N)C(=O)N[C@@H](CCCNC(=N)N)C(=O)N[C@H](CCCNC(=N)N)C(=O)NCCCCCCCC(=O)N[C@H](CCCNC(=N)N)C(=O)N[C@@H](CCCNC(=N)N)C(=O)N[C@H](CCCNC(=N)N)C(=O)N[C@@H](CCCNC(=N)N)C(=O)NCCCCCCCC(=O)N[C@H](CCCNC(=N)N)C(=O)N[C@@H](CCCNC(=N)N)C(=O)N[C@H](CCCNC(=N)N)C(=O)N[C@@H](CCCNC(=N)N)C(=O)NCCCCCCCC(=O)O [SEQ ID NO: 34, rRr-(Ada)-rRr-(Aoa)-rRrR-(Aoa)-rRrR-Aoa] (H-[dR]R[dR][NH(CH2)9CO][dR]R[dR][Aoc][dR]R[dR]R[Aoc][dR]R[dR]R[Aoc]-OH)	2 (≈ 0.715 µM)	1 (≈ 0.357 µM)	0.25 to 2	0.5 (≈ 0.179 µM)	0.5 (≈ 0.179 µM)	8 (≈ 2.86 µM)	4 (≈ 1.43 µM)	8 (≈ 2.86 µM)	32 (≈ 11.4 µM)	0.5 (≈ 0.179 µM)	16 (≈ 5.72 µM)	4 (≈ 1.43 µM)	8 (≈ 2.86 µM)	16 (≈ 5.72 µM)	1 (≈ 0.357 µM)	4 (≈ 1.43 µM)	0.5 (≈ 0.179 µM)	0.5 (≈ 0.179 µM)	162 (≈ 57.9 µM)	0.5 (≈ 0.179 µM)	MIC Mycobacterium fortuitum [10]: 2 µg/mL (≈ 0.715 µM); MIC Klebsiella pneumoniae [12]: 8 µg/mL (≈ 2.86 µM)
N=C(N)NCCC[C@@H](N)C(=O)N[C@@H](CCCNC(=N)N)C(=O)N[C@H](CCCNC(=N)N)C(=O)N1CCC[C@H]1C(=O)N[C@H](CCCNC(=N)N)C(=O)N[C@@H](CCCNC(=N)N)C(=O)N[C@H](CCCNC(=N)N)C(=O)N1CCC[C@H]1C(=O)N[C@H](CCCNC(=N)N)C(=O)N[C@@H](CCCNC(=N)N)C(=O)N[C@H](CCCNC(=N)N)C(=O)N[C@@H](CCCNC(=N)N)C(=O)N1CCC[C@H]1C(=O)N[C@H](CCCNC(=N)N)C(=O)N[C@@H](CCCNC(=N)N)C(=O)N[C@H](CCCNC(=N)N)C(=O)N[C@@H](CCCNC(=N)N)C(N)=O [SEQ ID NO: 53, rRr-P-rRr-P-rRrR-P-rRrR-NH2] (H-[dR]R[dR]P[dR]R[dR]P[dR]R[dR]RP[dR]R[dR]R-NH2)	0.5 (≈ 0.2 µM)	–	0.25 (≈ 0.1 µM)	0.25 (≈ 0.1 µM)	0.25 (≈ 0.1 µM)	0.5 (≈ 0.2 µM)	–	–	–	0.5 (≈ 0.2 µM)	–	–	–	–	0.5 (≈ 0.2 µM)	–	0.25 (≈ 0.1 µM)	0.25 (≈ 0.1 µM)	> 300	0.5 (≈ 0.2 µM)	Tolerated dose (highest dose evaluated) [13]: 7.5 mg/kg/day; Clinical or hematological adverse effects ([13]; up to 7.5 mg/kg/day): No significant clinical or hematological adverse effects were observed; MIC Range Filamentous Fungi (Filamentous Fungi): 0.12 to 0.25 µg/mL; remaining at 2 h, 5 μM (in vitro [14]): ~100%; Kidney to Plasma Concentration Ratio Day 7 ([15]; 6 hrs post dose of 7.5 mg/kg IP once daily, Day 7, mean ± SD, n = 3): 916 ± 36; Kidney to Plasma Concentration Ratio Day 1 ([15]; 6 hrs post dose of 7.5 mg/kg IP, Day 1, mean ± SD, n = 3): 179 ± 106; Day 1 AUC ratio, kidney to plasma ([15]; IP 7.5 mg/kg, Day 1): 58.3; Activity at 24 h MIC50 against Candida spp. (Candida spp.; 24 h): 0.5 µg/mL; Activity at 24 h MIC90 against Candida spp. (Candida spp.; 24 h): 0.5 µg/mL; Activity at 48 h MIC50 against Candida spp. (Candida spp.; 48 h): 0.5 µg/mL; Activity at 48 h MIC90 against Candida spp. (Candida spp.; 48 h): 2 µg/mL; MIC Range Scedosporium spp. (Scedosporium spp.): 0.25 µg/mL (≈ 0.1 µM); MTD ([16]; single IP dose, read-out: Tolerated single intraperitoneal dose): 10 to 15 mg/kg; MTD ([16]; single IV dose via tail vein, read-out: Tolerated single intravenous dose): 5 to 7.5 mg/kg; MIC Range Lomentospora prolificans (Lomentospora prolificans): 0.12 µg/mL (≈ 0.0481 µM); MIC Range Cryptococcus spp. (Cryptococcus spp.): 0.25 to 0.5 µg/mL; MIC Range Coccidioides species (Coccidioides species): 0.06 to 0.25 µg/mL
